Test results: patent publication US20260041744A1, “Methods for Treating Pompe Disease” (Amicus Therapeutics, Inc., priority 2022, published 2026)

Experiments:
[1] = tested on: Gaa KO mice; assay: Muscle biomarkers LAMP1, LC3, dysferlin in Gaa KO mice (staining, western blot); format: in vivo, mouse; conditions: mouse, in vivo
Procedure: The therapeutic effects of ATB200 and miglustat were evaluated and compared against those of Alglucosidase alfa in Gaa KO mice. For the study, male Gaa KO (3-to 4-month old) and age-matched wild-type (WT) mice were used. Alglucosidase alfa was administered via bolus tail vein intravenous (IV) injection. In the co-administration regimen, miglustat was administered via oral gavage (PO) 30 minutes prior to the IV injection of ATB200. Treatment was given biweekly. Treated mice were sacrificed after 14 days from the last administration and various tissues were collected for further analysis. Table 11 summarizes the study design:
Tissue samples were also analyzed for biomarker changes following the methods discussed in: Khanna R, et al. (2012), “The pharmacological chaperone AT2220 increases recombinant human acid α-glucosidase uptake and glycogen reduction in a mouse model of Pompe disease,” Plos One 7(7): e40776; and Khanna, R et al. (2014), “The Pharmacological Chaperone AT2220 Increases the Specific Activity and Lysosomal Delivery of Mutant Acid a-Glucosidase, and Promotes Glycogen Reduction in a Transgenic Mouse Model of Pompe Disease,” PLOS ONE 9(7): e102092.
Similarly, intense LC3-positive aggregates in the muscle fibers of untreated Gaa KO mice signify the presence of autophagic zones and autophagy build-up. […] A similar observation was made when the expression of LC3 was assessed using western blot. […] In comparison, the effect of alglucosidase alfa on autophagy was modest.
Dysferlin, a protein involved in membrane repair and whose deficiency/mistrafficking is associated with a number of muscular dystrophies, was also assessed.

[2] = tested on: adult subjects with LOPD; assay: Study ATB200-07 (OLE): PROMIS-Physical Function; format: in vivo, human
Source text: (§3) Analysis populations presented in this summary are 1) the OLE-ES Population (all subjects who satisfied the eligibility requirements (based on the inclusion and exclusion criteria) and entered Study ATB200-07 and 2) the OLE-FAS Population (all subjects who entered the OLE Study ATB200-07 who had both a valid ATB200-07 baseline and at least 1 post-baseline assessment for at least 1 of the 6 main efficacy endpoints [6MWD, sitting % predicted FVC, MMT-lower extremities, PROMIS-Physical Function, PROMIS-Fatigue, and GSGC]).

[3] = tested on: adult subjects with Pompe disease; assay: Pooled Studies ATB200-02/03/07 (Pool 2): sitting % predicted FVC by exposure interval; conditions: exposure interval ≤15 months
Procedure: The pooled efficacy analyses presented within this section include the outlier (Pool 2). […] Pooled efficacy analyses excluding the outlier subject (Pool 2A) were also performed.
No long-term data for the alglucosidase alfa/placebo group are available, as all subjects switched to cipaglucosidase alfa/miglustat in Study ATB200-07.
Efficacy data from the 3 adult Pompe disease clinical studies were pooled and analyzed to further support the long-term efficacy of cipaglucosidase alfa/miglustat in adult subjects. Data from non-ambulatory subjects (Study ATB200-02 Cohort 2) were not included in the pool as there was little overlap of efficacy endpoints for this group with the various ambulatory groups, such as 6MWD and lower MMT.
The 3 adult Pompe disease clinical studies were pooled as follows: • The cipaglucosidase alfa/miglustat treatment group consists of: • All ambulatory subjects in Study ATB200-02 (Cohorts 1, 3, and 4), • All subjects randomized to the cipaglucosidase alfa/miglustat treatment group in Study ATB200-03, and • All subjects enrolled in Study ATB200-07. • The alglucosidase alfa/placebo treatment group consists of: • All subjects randomized to the ERT treatment group in Study ATB200-03.

[4] = tested on: adult subjects with LOPD; assay: Study ATB200-07 (OLE): MMT lower extremity
Source text: as §3

[5] = tested on: adult subjects with LOPD; assay: Study ATB200-07 (OLE): sitting % predicted FVC; format: in vivo, human
Source text: (§1) The study doses and schedule are maintained from Study ATB200-03.
(§2) Efficacy data are presented in this summary as change from the baseline of Study ATB200-03 (OLE-ES Population).

[6] = tested on: adult subjects with late-onset Pompe disease (LOPD); assay: Study ATB200-03 (PROPEL): urinary hexose tetrasaccharide (Hex4/Glc4); format: in vivo, human
[7] = tested on: adult subjects with LOPD; assay: Study ATB200-07 (OLE of PROPEL): 6MWD and % predicted 6MWD; format: in vivo, human
Source text: as §1, §2

[8] = tested on: adult subjects with LOPD; assay: Study ATB200-07 (OLE): CK
Procedure: The Phase III double-blind PROPEL study (NCT03729362; ATB200-03) described in Examples 9 and 10 above compared the investigational two-component therapy cipaglucosidase alfa/miglustat (cipa/mig) with alglucosidase alfa/placebo (alglu) in adults with late-onset Pompe disease (LOPD) over 52 weeks. The ongoing open-label extension (OLE) of PROPEL (NCT04138277; ATB200-07) evaluates long-term safety and efficacy of cipa/mig. Outcomes include 6 minute walk distance (6MWD), forced vital capacity (FVC), creatine kinase (CK) and hexose tetrasaccharide (Hex4) levels and safety. Data are reported as change from the PROPEL baseline to OLE week 52 (104 weeks after the PROPEL baseline).

[9] = tested on: adult subjects with late-onset Pompe disease (LOPD); assay: Study ATB200-03: global test and responder analyses on 6MWD, FVC, MMT; format: in vivo, human; conditions: change from baseline to Week 52
Source text: To support the interpretation of clinical benefit, a composite subject-level response was defined based on the totality of the treatment outcome data. Subjects were classified by an ordinal response variable consisting of significant improvement, moderate improvement, or minor/no improvement based on treatment outcomes.
Thresholds for clinically relevant changes for 6MWD and FVC in Pompe specifically are not well established, however a large body of data exists from other neuromuscular and chronic respiratory diseases, especially interstitial pulmonary fibrosis (IPF). […] Accordingly, these thresholds were applied to analyses of Study ATB200-03 data.
Additional post hoc patient-level analyses were conducted using these thresholds for 6MWD (±6%) and FVC (±3%) separately and combined.

[10] = Study ATB200-03 baseline, OLE-ES Population excluding Subject 4005-2511
[11] = change from ATB200-03 baseline at Week 52, OLE-ES excluding Subject 4005-2511
[12] = change from ATB200-03 baseline at Week 104, alglucosidase alfa/placebo group switched to cipaglucosidase alfa/miglustat at Week 52, OLE-ES excluding Subject 4005-2511
[13] = ERT-naïve, Study ATB200-03/07, excluding the outlier
[14] = Excluding Subject 4005-2511, 2-sided p 0.010
[15] = ITT Population, 2-sided p 0.022

alglucosidase alfa [reference compound]
LC3 II level / autophagy, western blot [1]: modest
PROMIS-Physical Function, mean BSL [2, 10]: 67.9
PROMIS-Physical Function, mean 52-wk CFB [2, 11]: 0.3
PROMIS-Physical Function, mean 104-wk CFB [2, 12]: −0.4
Sitting % Predicted FVC Baseline, Mean ([3]; Pool 2, Efficacy Population including the outlier): 70.04 % predicted
Sitting % Predicted FVC Baseline, Median ([3]; Pool 2, including the outlier): 71.25 % predicted
sitting % predicted FVC change from baseline, median ([3]; Pool 2, including the outlier): −3.00 % predicted
sitting % predicted FVC change from baseline, mean ([3]; last available post-baseline value − baseline, Pool 2, including the outlier): −3.64 % predicted
MMT (lower extremity score), mean BSL [4, 10]: 27.8
MMT (lower extremity score), mean 52-wk CFB [4, 11]: 0.9
MMT (lower extremity score), mean 104-wk CFB [4, 12]: 1.1
% Predicted FVC Baseline Mean [5, 13]: 79.1 % predicted
% Predicted FVC CFBL M12 (W 52) Mean [5, 13]: −4.0 % predicted
% Predicted FVC CFBL M24 (W 104) Mean [5, 13]: −3.1 % predicted
Sitting FVC, mean BSL [5, 10]: 69.5 % predicted
Sitting FVC, mean 52-wk CFB [5, 11]: −3.6 % predicted
Sitting FVC, mean 104-wk CFB [5, 12]: −3.6 % predicted
mean urinary Glc4 concentration at Week 52 ([6]; ERT-experienced patients (baseline 4.6 and 7.2 mmol/mol)): 9.1 mmol/mol
mean change in urine Hex-4 after 52 weeks ([6]; combined ERT switch and ERT naïve population): +11.0%
6MWD, mean BSL [7, 10]: 351.7 m
6MWD, mean 52-wk CFB ([7]; change from ATB200-03 baseline at Week 52 (= ATB200-07 baseline), OLE-ES excluding Subject 4005-2511): 8.0 m
6MWD, mean 104-wk CFB [7, 12]: 3.3 m
CK, mean BSL [8, 10]: 527.4
CK, mean 52-wk CFB [8, 11]: 41.0
CK, mean 104-wk CFB [8, 12]: −173.6
Wilcoxon rank sum test on sum of ranks for 6MWD and % predicted FVC: Mean Score [9, 14]: 48.5
Wilcoxon rank sum test on sum of ranks for 6MWD and % predicted FVC: Sum of Scores [9, 14]: 1793.5
Wilcoxon rank sum test on sum of ranks for 6MWD and FVC: Mean Score [9, 15]: 50.4
Wilcoxon rank sum test on sum of ranks for 6MWD and FVC: Sum of Scores [9, 15]: 1915.5
